# Experimental data from patent US7138361B2, “Herbicidal heterocycles” (E. I. du Pont de Nemours and Company, priority 2000, dated 2006).
# Key:
# Format in all cases: in vivo
# [1] = system: Surinam grass (Brachiaria decumbens); test: Test B preemergence
# In short: (§1)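 Post-treatment, species sat 13–15 days under greenhouse conditions before visual scoring against controls, 0 (no effect) through 100 (complete control). Application preemergence to sown seeds or postemergence at 1- to 4-leaf stage, using a non-phytotoxic solvent/surfactant formulation.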
# [2] = system: barnyardgrass (Echinochloa crus-galli); test: Test B preemergence
# In short: as §1
# [3] = system: cocklebur (Xanthium strumarium); test: Test B preemergence
# In short: as §1
# corn (Zea mays) = test: Test B preemergence
# In short: as §1
# [4] = system: crabgrass (Digitaria sanguinalis); test: Test B preemergence
# In short: as §1
# [5] = system: giant foxtail (Setaria faberii); test: Test B preemergence
# In short: as §1
# [6] = system: lambsquarters (Chenopodium album); test: Test B preemergence
# In short: as §1
# [7] = system: morning glory (Ipomoea hederacea); test: Test B preemergence
# In short: as §1
# [8] = system: pigweed (Amaranthus retroflexus); test: Test B preemergence
# In short: as §1
# rice (Oryza saliva) = test: Test B preemergence
# In short: as §1
# [9] = system: velvetleaf (Abutilon theophrasti); test: Test B preemergence
# In short: as §1
# [10] = system: Surinam grass (Brachiaria decumbens); test: Test C preemergence; settings: for Plant response rating (0 to 100), Surinam grass: visual evaluation after 12 to 14 days
# In short: (§2)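 Response scores (0 no effect to 100 complete control) came from visual comparison with untreated controls 12 to 14 days after treatment. Preemergence application was made to seeded soil; postemergence, to plants at the 1- to 4-leaf stage.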
# [11] = system: bermudagrass (Cynodon dactylon); test: Test C preemergence; settings: for Plant response rating (0 to 100 where 0 is no effect and 100 is complete control), Bermudagrass: visual evaluation after 12 to 14 days
# In short: as §2
# [12] = system: cocklebur (Xanthium strumarium); test: Test C preemergence; settings: for Plant response rating (0 to 100), Cocklebur: visual evaluation after 12 to 14 days
# In short: as §2
# [13] = system: crabgrass (Digitaria sanguinalis); test: Test C preemergence; settings: for Plant response rating (0 to 100), Crabgrass: visual evaluation after 12 to 14 days
# In short: as §2
# [14] = system: giant foxtail (Setaria faberii); test: Test C preemergence; settings: for Plant response rating (0 to 100), Foxtail, Giant: visual evaluation after 12 to 14 days
# In short: as §2
# kochia (Kochia scoparia) = test: Test C preemergence; settings: for Plant response rating (0 to 100), Kochia: visual evaluation after 12 to 14 days
# In short: as §2
# [15] = system: pigweed (Amaranthus retroflexus); test: Test C preemergence; settings: for Plant response rating (0 to 100), Pigweed: Rate 500 g/ha, visual evaluation after 12 to 14 days
# In short: as §2
# soybean (Glycine max) = test: Test C preemergence; settings: for Plant response rating (0 to 100), Soybean: Rate 500 g/ha, visual evaluation after 12 to 14 days
# In short: as §2
# [16] = system: woolly cupgrass (Eriochloa villosa); test: Test C preemergence; settings: for Plant response rating (0 to 100), Cupgrass, Woolly: visual evaluation after 12 to 14 days
# In short: as §2
# Nightshade = test: Test C preemergence; settings: Rate 500 g/ha, visual evaluation after 12 to 14 days
# Sunflower = test: Test C preemergence; settings: Rate 250 g/ha, scale 0 to 100, 0 no effect, 100 complete control
# [17] = Preemergence, Rate 500 g/ha, scale 0 to 100, 0 no effect, 100 complete control
# [18] = preemergence, Rate 125 g/ha, scale of 0 to 100 where 0 is no effect and 100 is complete control, 13 to 15 days
# [19] = Rate 125 g/ha, scale 0 to 100, 0 no effect, 100 complete control
# [20] = preemergence, Rate 62 g/ha, scale 0 to 100
# [21] = preemergence, Rate 250 g/ha, scale 0 to 100, 0 no effect, 100 complete control
structure (smiles),measurement,setting,value
CSc1cccc(N2CCC(n3ccc(C(C)(C)C)n3)C2=O)c1 (stereo not drawn) [Compound 86],"Plant response rating, Surinam grass",[1]; [17],60
same,"Plant response rating, Surinam grass",[1]; [18],0
same,"Plant response rating, Barnyardgrass",[2]; [17],100
same,"Plant response rating, Barnyardgrass",[2]; [18],0
same,"Plant response rating, Cocklebur",[3]; [17],0
same,"Plant response rating, Cocklebur",[3]; [18],0
same,"Plant response rating, Corn",corn (Zea mays); [17],20
same,"Plant response rating, Corn",corn (Zea mays); [18],0
same,"Plant response rating, Crabgrass",[4]; [17],100
same,"Plant response rating, Crabgrass",[4]; [18],0
same,"Plant response rating, Foxtail, Giant",[5]; [17],100
same,"Plant response rating, Foxtail, Giant",[5]; [18],80
same,"Plant response rating, Lambsquarters",[6]; [17],100
same,"Plant response rating, Lambsquarters",[6]; [18],100
same,"Plant response rating, Morningglory",[7]; [17],0
same,"Plant response rating, Morningglory",[7]; [18],0
same,"Plant response rating, Pigweed",[8]; [17],100
same,"Plant response rating, Pigweed",[8]; [18],100
same,"Plant response rating, Rice",rice (Oryza saliva); [17],0
same,"Plant response rating, Rice",rice (Oryza saliva); [18],0
same,"Plant response rating, Velvetleaf",[9]; [17],0
same,"Plant response rating, Velvetleaf",[9]; [18],0
same,"Plant response rating, Surinam grass",[10]; [19],20
same,"Plant response rating, Surinam grass",[10]; [20],20
same,"Plant response rating (0 to 100), Surinam grass","[10]; preemergence, Rate 250 g/ha",20
same,"Plant response rating (0 to 100), Surinam grass","[10]; preemergence, Rate 500 g/ha",30
same,"Plant response rating, Bermudagrass",[11]; [19],30
same,"Plant response rating, Bermudagrass",[11]; [20],10
same,"Plant response rating (0 to 100 where 0 is no effect and 100 is complete control), Bermudagrass","[11]; preemergence, Rate 250 g/ha",90
same,"Plant response rating (0 to 100 where 0 is no effect and 100 is complete control), Bermudagrass","[11]; preemergence, Rate 500 g/ha",100
same,"Plant response rating, Cocklebur",[12]; [19],0
same,"Plant response rating, Cocklebur",[12]; [20],0
same,"Plant response rating (0 to 100), Cocklebur","[12]; preemergence, Rate 250 g/ha",0
same,"Plant response rating (0 to 100), Cocklebur","[12]; preemergence, Rate 500 g/ha",0
same,"Plant response rating, Crabgrass",[13]; [19],90
same,"Plant response rating, Crabgrass",[13]; [20],0
same,"Plant response rating (0 to 100), Crabgrass","[13]; preemergence, Rate 250 g/ha",100
same,"Plant response rating (0 to 100), Crabgrass","[13]; preemergence, Rate 500 g/ha",100
same,"Plant response rating, Foxtail, Giant",[14]; [19],0
same,"Plant response rating, Foxtail, Giant",[14]; [20],0
same,"Plant response rating (0 to 100), Foxtail, Giant","[14]; preemergence, Rate 250 g/ha",80
same,"Plant response rating (0 to 100), Foxtail, Giant","[14]; preemergence, Rate 500 g/ha",100
same,"Plant response rating, Kochia",kochia (Kochia scoparia); [19],90
same,"Plant response rating, Kochia",kochia (Kochia scoparia); [20],70
same,"Plant response rating (0 to 100), Kochia","kochia (Kochia scoparia); preemergence, Rate 250 g/ha",100
same,"Plant response rating (0 to 100), Kochia","kochia (Kochia scoparia); preemergence, Rate 500 g/ha",100
same,"Plant response rating, Pigweed",[15]; [19],100
same,"Plant response rating, Pigweed",[15]; [20],70
same,"Plant response rating (0 to 100), Pigweed",[15]; preemergence,100
same,"Plant response rating, Pigweed",[15]; [21],0
same,"Plant response rating, Soybean",soybean (Glycine max); [19],0
same,"Plant response rating, Soybean",soybean (Glycine max); [20],0
same,"Plant response rating (0 to 100), Soybean",soybean (Glycine max); preemergence,0
same,"Plant response rating, Soybean",soybean (Glycine max); [21],0
same,"Plant response rating, Cupgrass, Woolly",[16]; [19],30
same,"Plant response rating, Cupgrass, Woolly",[16]; [20],30
same,"Plant response rating (0 to 100), Cupgrass, Woolly","[16]; preemergence, Rate 250 g/ha",90
same,"Plant response rating (0 to 100), Cupgrass, Woolly","[16]; preemergence, Rate 500 g/ha",100
same,"Plant response rating (0 to 100), Nightshade",Nightshade,10
same,"Plant response rating, Sunflower",Sunflower,20
COc1cccc(N2CCC(n3ccc(C(C)(C)C)n3)C2=O)c1 (stereo not drawn) [Compound 87],"Plant response rating, Surinam grass",[1]; [17],100
same,"Plant response rating, Surinam grass",[1]; [18],80
same,"Plant response rating, Barnyardgrass",[2]; [17],100
same,"Plant response rating, Barnyardgrass",[2]; [18],100
same,"Plant response rating, Cocklebur",[3]; [17],0
same,"Plant response rating, Cocklebur",[3]; [18],0
same,"Plant response rating, Corn",corn (Zea mays); [17],60
same,"Plant response rating, Corn",corn (Zea mays); [18],30
same,"Plant response rating, Crabgrass",[4]; [17],100
same,"Plant response rating, Crabgrass",[4]; [18],100
same,"Plant response rating, Foxtail, Giant",[5]; [17],100
same,"Plant response rating, Foxtail, Giant",[5]; [18],100
same,"Plant response rating, Lambsquarters",[6]; [17],100
same,"Plant response rating, Lambsquarters",[6]; [18],100
same,"Plant response rating, Morningglory",[7]; [17],0
same,"Plant response rating, Morningglory",[7]; [18],0
same,"Plant response rating, Pigweed",[8]; [17],100
same,"Plant response rating, Pigweed",[8]; [18],100
same,"Plant response rating, Rice",rice (Oryza saliva); [17],100
same,"Plant response rating, Rice",rice (Oryza saliva); [18],70
same,"Plant response rating, Velvetleaf",[9]; [17],0
same,"Plant response rating, Velvetleaf",[9]; [18],0
same,"Plant response rating, Surinam grass",[10]; [19],100
same,"Plant response rating, Surinam grass",[10]; [20],40
same,"Plant response rating (0 to 100), Surinam grass","[10]; preemergence, Rate 250 g/ha",100
same,"Plant response rating (0 to 100), Surinam grass","[10]; preemergence, Rate 500 g/ha",100
same,"Plant response rating, Bermudagrass",[11]; [19],100
same,"Plant response rating, Bermudagrass",[11]; [20],100
same,"Plant response rating (0 to 100 where 0 is no effect and 100 is complete control), Bermudagrass","[11]; preemergence, Rate 250 g/ha",100
same,"Plant response rating (0 to 100 where 0 is no effect and 100 is complete control), Bermudagrass","[11]; preemergence, Rate 500 g/ha",100
same,"Plant response rating, Cocklebur",[12]; [19],0
same,"Plant response rating, Cocklebur",[12]; [20],0
same,"Plant response rating (0 to 100), Cocklebur","[12]; preemergence, Rate 250 g/ha",0
same,"Plant response rating (0 to 100), Cocklebur","[12]; preemergence, Rate 500 g/ha",0
same,"Plant response rating, Crabgrass",[13]; [19],100
same,"Plant response rating, Crabgrass",[13]; [20],100
same,"Plant response rating (0 to 100), Crabgrass","[13]; preemergence, Rate 250 g/ha",100
same,"Plant response rating (0 to 100), Crabgrass","[13]; preemergence, Rate 500 g/ha",100
same,"Plant response rating, Foxtail, Giant",[14]; [19],100
same,"Plant response rating, Foxtail, Giant",[14]; [20],30
same,"Plant response rating (0 to 100), Foxtail, Giant","[14]; preemergence, Rate 250 g/ha",100
same,"Plant response rating (0 to 100), Foxtail, Giant","[14]; preemergence, Rate 500 g/ha",100
same,"Plant response rating, Kochia",kochia (Kochia scoparia); [19],100
same,"Plant response rating, Kochia",kochia (Kochia scoparia); [20],100
same,"Plant response rating (0 to 100), Kochia","kochia (Kochia scoparia); preemergence, Rate 250 g/ha",100
same,"Plant response rating (0 to 100), Kochia","kochia (Kochia scoparia); preemergence, Rate 500 g/ha",100
same,"Plant response rating, Pigweed",[15]; [19],0
same,"Plant response rating, Pigweed",[15]; [20],0
same,"Plant response rating (0 to 100), Pigweed",[15]; preemergence,100
same,"Plant response rating, Pigweed",[15]; [21],100
same,"Plant response rating, Soybean",soybean (Glycine max); [19],20
same,"Plant response rating, Soybean",soybean (Glycine max); [20],0
same,"Plant response rating (0 to 100), Soybean",soybean (Glycine max); preemergence,30
same,"Plant response rating, Soybean",soybean (Glycine max); [21],20
same,"Plant response rating, Cupgrass, Woolly",[16]; [19],100
same,"Plant response rating, Cupgrass, Woolly",[16]; [20],90
same,"Plant response rating (0 to 100), Cupgrass, Woolly","[16]; preemergence, Rate 250 g/ha",100
same,"Plant response rating (0 to 100), Cupgrass, Woolly","[16]; preemergence, Rate 500 g/ha",100
same,"Plant response rating (0 to 100), Nightshade",Nightshade,90
same,"Plant response rating, Sunflower",Sunflower,20
